For one compound, Kd results are on record in PMC12114683, “The Molecular Chaperone TCP1 Affects Carcinogenicity and Is a Potential Therapeutic Target for Acute Myeloid Leukemia” (Pharmaceutics, 2025).

Molecules are shown by their SMILES.

What is called Kd is the equilibrium constant for the complex coming apart. A lower Kd goes with tighter binding.

The experiment addresses T1, TCP1 (Homo sapiens, UniProt P17987).
T1 construct: commercial recombinant TCP1 (Abnova), isolated subunit, amine-coupled to CM5 chip; PDB 4B2T was only the docking model
Nature of the experiment: SPR (Biacore T200, CM5 chip, TCP1 amine-coupled). Format: binding. In general terms: Surface plasmon resonance follows binding to a sensor surface in real time, without labels.

T1 sequence (P17987 whole entry): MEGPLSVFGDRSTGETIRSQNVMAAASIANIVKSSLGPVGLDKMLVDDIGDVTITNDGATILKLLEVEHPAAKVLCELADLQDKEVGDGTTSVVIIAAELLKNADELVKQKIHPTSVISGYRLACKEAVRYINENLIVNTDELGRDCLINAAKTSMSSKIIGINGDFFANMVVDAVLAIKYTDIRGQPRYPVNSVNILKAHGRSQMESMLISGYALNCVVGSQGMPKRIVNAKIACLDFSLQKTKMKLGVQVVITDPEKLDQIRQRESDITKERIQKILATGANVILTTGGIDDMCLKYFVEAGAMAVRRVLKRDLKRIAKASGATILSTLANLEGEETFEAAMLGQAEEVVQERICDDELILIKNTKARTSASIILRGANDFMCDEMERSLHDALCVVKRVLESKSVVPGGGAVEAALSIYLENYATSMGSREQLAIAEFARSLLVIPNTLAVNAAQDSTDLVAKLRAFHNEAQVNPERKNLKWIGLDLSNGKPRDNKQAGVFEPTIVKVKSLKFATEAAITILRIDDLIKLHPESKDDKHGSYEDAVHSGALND

The compound `CCCCCCCCc1ccc(CCC(N)(CO)CO)cc1` [FTY720] registered a Kd of 6.77 nM.
